Measured values from patent publication US11553712B2 (priority 2010, dated 2023).
Read-outs that look alike come from different tables or passages of the source. Marks after values point to notes of the source that are not given here.

Experiments:
PRV = conditions: eluate with 45% PG
TGEV = conditions: 45% (v/v) PG eluate, 20°C
BVDV = conditions: 45% (v/v) PG eluate, 20°C
[1] = T = 6 h (+SD) (Standard titration)
[2] = TGEV Run 1, T = 0 min Load Sample, Standard titration
[3] = TGEV Run 1, T = 5 min, Standard titration
[4] = TGEV Run 1, T = 15 min, Standard titration
[5] = TGEV Run 1, T = 60 min, Standard titration
[6] = TGEV Run 1, T = 180 min, Standard titration
[7] = TGEV Run 1, T = 360 min, Standard titration
[8] = TGEV Run 2, T = 0 min Load Sample, Standard titration
[9] = TGEV Run 2, T = 5 min, Standard titration
[10] = TGEV Run 2, T = 15 min, Standard titration
[11] = TGEV Run 2, T = 60 min, Standard titration
[12] = TGEV Run 2, T = 180 min, 1LVP (96 wells)
[13] = TGEV Run 2, T = 360 min, 1 LVP (96 wells)
[14] = BVDV Run 1, T = 0 min Load Sample, Standard titration
[15] = BVDV Run 1, T = 5 min, Standard titration
[16] = BVDV Run 1, T = 15 min, Standard titration
[17] = BVDV Run 1, T = 60 min, Standard titration
[18] = BVDV Run 1, T = 180 min, Standard titration
[19] = BVDV Run 1, T = 360 min, Standard titration
[20] = BVDV Run 2, T = 0 min Load Sample, Standard titration
[21] = BVDV Run 2, T = 5 min, Standard titration
[22] = BVDV Run 2, T = 15 min, Standard titration
[23] = BVDV Run 2, T = 60 min, Standard titration
[24] = BVDV Run 2, T = 180 min, Standard titration

With propane-1,2-diol [PG] the Titer (PRV; Control T = 0 h (w/o SD)) was 2.17 ± 0.30 TCID50/ml, the “Viral Load” value (PRV; Control T = 0 h (w/o SD)) was 4.47 ± 0.30 log10 and the Titer (PRV; Control T = 6 h (w/o SD)) was ≤0.78* TCID50/ml. For the same substance, the “Viral Load” value (PRV; Control T = 6 h (w/o SD)) was at most 3.08 log10, the Titer (PRV; T = 0 h (+SD)) was ≤1.48* TCID50/ml and the “Viral Load” value (PRV; T = 0 h (+SD)) was at most 3.78 log10. For the same substance, the Titer (PRV; T = 1 h (+SD)) was ≤1.48* TCID50/ml, the “Viral Load” value (PRV; T = 1 h (+SD)) was at most 3.78 log10 and the Titer (PRV; T = 3 h (+SD)) was ≤1.48* TCID50/ml. The “Viral Load” value (PRV; T = 3 h (+SD)) was at most 3.78 log10, the Titer (PRV; [1]) was ≤1.48* TCID50/ml and the “Viral Load” value (PRV; [1]) was at most 3.78 log10. The “Clearance Factor” value (TGEV; [2]) was 0.07 log, the “Log10TICD50 (total viral load)” value (TGEV; [2]) was 7.38 Log10TICD50 and the Titre (TGEV; [2]) was 5.12 log10TCID50/ml. The “Clearance Factor” value (TGEV; [3]) was 1.24 log, the “Log10TICD50 (total viral load)” value (TGEV; [3]) was 6.21 Log10TICD50 and the Titre (TGEV; [3]) was 3.95 log10TCID50/ml. The “Reduction Factor” value (TGEV; TGEV Run 1, T = 5 min vs T0, Standard titration) was 1.17 log, the “Clearance Factor” value (TGEV; [4]) was 2.41 log and the “Log10TICD50 (total viral load)” value (TGEV; [4]) was 5.04 Log10TICD50. The Titre (TGEV; [4]) was 2.78 log10TCID50/ml, the “Reduction Factor” value (TGEV; TGEV Run 1, T = 15 min vs T0, Standard titration) was 2.34 log and the “Clearance Factor” value (TGEV; [5]) was 3.87 log. For the same substance, the “Log10TICD50 (total viral load)” value (TGEV; [5]) was 3.58 Log10TICD50, the Titre (TGEV; [5]) was 1.32 log10TCID50/ml and the “Reduction Factor” value (TGEV; TGEV Run 1, T = 60 min vs T0, Standard titration) was 3.8 log. The “Clearance Factor” value (TGEV; [6]) was 4.39 log, the “Log10TICD50 (total viral load)” value (TGEV; [6]) was 3.06 Log10TICD50 and the Titre (TGEV; [6]) was 0.8 log10TCID50/ml. The “Reduction Factor” value (TGEV; TGEV Run 1, T = 180 min vs T0, Standard titration) was 4.32 log, the “Clearance Factor” value (TGEV; [7]) was over 4.39 log and the “Log10TICD50 (total viral load)” value (TGEV; [7]) was under 3.06 Log10TICD50. For the same substance, the Titre (TGEV; [7]) was under 0.8 log10TCID50/ml, the “Reduction Factor” value (TGEV; TGEV Run 1, T = 360 min vs T0, Standard titration) was over 4.32 log and the “Clearance Factor” value (TGEV; [8]) was 0.08 log. The “Log10TICD50 (total viral load)” value (TGEV; [8]) was 7.54 Log10TICD50, the Titre (TGEV; [8]) was 5.28 log10TCID50/ml and the “Clearance Factor” value (TGEV; [9]) was 1.08 log. For the same substance, the “Log10TICD50 (total viral load)” value (TGEV; [9]) was 6.54 Log10TICD50, the Titre (TGEV; [9]) was 4.28 log10TCID50/ml and the “Reduction Factor” value (TGEV; TGEV Run 2, T = 5 min vs T0, Standard titration) was 1 log. For the same substance, the “Clearance Factor” value (TGEV; [10]) was 2.16 log, the “Log10TICD50 (total viral load)” value (TGEV; [10]) was 5.46 Log10TICD50 and the Titre (TGEV; [10]) was 3.2 log10TCID50/ml. The “Reduction Factor” value (TGEV; TGEV Run 2, T = 15 min vs T0, Standard titration) was 2.08 log, the “Clearance Factor” value (TGEV; [11]) was 4.56 log and the “Log10TICD50 (total viral load)” value (TGEV; [11]) was 3.06 Log10TICD50. The Titre (TGEV; [11]) was 0.8 log10TCID50/ml, the “Reduction Factor” value (TGEV; TGEV Run 2, T = 60 min vs T0, Standard titration) was 4.48 log and the “Clearance Factor” value (TGEV; [12]) was 5.48 log. The “Log10TICD50 (total viral load)” value (TGEV; [12]) was 2.14 Log10TICD50, the Titre (TGEV; [12]) was −0.12 log10TCID50/ml and the “Reduction Factor” value (TGEV; TGEV Run 2, T = 180 min vs T0, 1LVP (96 wells)) was 5.4 log. For the same substance, the “Clearance Factor” value (TGEV; [13]) was over 5.48 log, the “Log10TICD50 (total viral load)” value (TGEV; [13]) was under 2.14 Log10TICD50 and the Titre (TGEV; [13]) was under −0.12 log10TCID50/ml. The “Reduction Factor” value (TGEV; TGEV Run 2, T = 360 min vs T0, 1 LVP (96 wells)) was over 5.40 log, the “Clearance Factor” value (BVDV; [14]) was 0.43 log and the “Log10TICD50 (total viral load)” value (BVDV; [14]) was 5.85 Log10TICD50. The Titre (BVDV; [14]) was 3.12 log10TCID50/ml, the “Clearance Factor” value (BVDV; [15]) was 1.65 log and the “Log10TICD50 (total viral load)” value (BVDV; [15]) was 4.63 Log10TICD50. For the same substance, the Titre (BVDV; [15]) was 1.9 log10TCID50/ml, the “Reduction Factor” value (BVDV; BVDV Run 1, T = 5 min vs T0, Standard titration) was 1.22 log and the “Clearance Factor” value (BVDV; [16]) was 1.3 log. For the same substance, the “Log10TICD50 (total viral load)” value (BVDV; [16]) was 4.98 Log10TICD50, the Titre (BVDV; [16]) was 2.25 log10TCID50/ml and the “Reduction Factor” value (BVDV; BVDV Run 1, T = 15 min vs T0, Standard titration) was 0.87 log. The “Clearance Factor” value (BVDV; [17]) was 1.3 log, the “Log10TICD50 (total viral load)” value (BVDV; [17]) was 4.98 Log10TICD50 and the Titre (BVDV; [17]) was 2.25 log10TCID50/ml. For the same substance, the “Reduction Factor” value (BVDV; BVDV Run 1, T = 60 min vs T0, Standard titration) was 0.87 log, the “Clearance Factor” value (BVDV; [18]) was 1.3 log and the “Log10TICD50 (total viral load)” value (BVDV; [18]) was 4.98 Log10TICD50. The Titre (BVDV; [18]) was 2.25 log10TCID50/ml, the “Reduction Factor” value (BVDV; BVDV Run 1, T = 180 min vs T0, Standard titration) was 0.87 log and the “Clearance Factor” value (BVDV; [19]) was 2.75 log. The “Log10TICD50 (total viral load)” value (BVDV; [19]) was 3.53 Log10TICD50, the Titre (BVDV; [19]) was 0.8 log10TCID50/ml and the “Reduction Factor” value (BVDV; BVDV Run 1, T = 360 min vs T0, Standard titration) was over 4.32 log. The “Clearance Factor” value (BVDV; [20]) was 0.44 log, the “Log10TICD50 (total viral load)” value (BVDV; [20]) was 5.76 Log10TICD50 and the Titre (BVDV; [20]) was 3.03 log10TCID50/ml. For the same substance, the “Clearance Factor” value (BVDV; [21]) was 1.88 log, the “Log10TICD50 (total viral load)” value (BVDV; [21]) was 4.32 Log10TICD50 and the Titre (BVDV; [21]) was 1.59 log10TCID50/ml. For the same substance, the “Reduction Factor” value (BVDV; BVDV Run 2, T = 5 min vs T0, Standard titration) was 1.44 log, the “Clearance Factor” value (BVDV; [22]) was 2.15 log and the “Log10TICD50 (total viral load)” value (BVDV; [22]) was 4.05 Log10TICD50. For the same substance, the Titre (BVDV; [22]) was 1.32 log10TCID50/ml, the “Reduction Factor” value (BVDV; BVDV Run 2, T = 15 min vs T0, Standard titration) was 1.71 log and the “Clearance Factor” value (BVDV; [23]) was 1.88 log. The “Log10TICD50 (total viral load)” value (BVDV; [23]) was 4.32 Log10TICD50, the Titre (BVDV; [23]) was 1.59 log10TCID50/ml and the “Reduction Factor” value (BVDV; BVDV Run 2, T = 60 min vs T0, Standard titration) was 1.44 log. The “Clearance Factor” value (BVDV; [24]) was over 2.67 log, the “Log10TICD50 (total viral load)” value (BVDV; [24]) was under 3.53 Log10TICD50 and the Titre (BVDV; [24]) was under 0.8 log10TCID50/ml. For the same substance, the “Reduction Factor” value (BVDV; BVDV Run 2, T = 180 min vs T0, Standard titration) was over 2.23 log, the “Clearance Factor” value (BVDV; BVDV Run 2, T = 360 min, 1 LVP) was over 3.59 log and the “Log10TICD50 (total viral load)” value (BVDV; BVDV Run 2, T = 360 min, 1 LVP) was under 2.61 Log10TICD50. The Titre (BVDV; BVDV Run 2, T = 360 min, 1 LVP) was under −0.12 log10TCID50/ml and the “Reduction Factor” value (BVDV; BVDV Run 2, T = 360 min vs T0, 1 LVP) was over 3.15 log.
